What all share (format): cell-based
Experiment [1] relates to RS4;11-BCL-2 G101V cells. The experiment in a line: Cell proliferation assay (MTS), RS4;11-BCL-2 G101V engineered cells. The note with it: Homo sapiens, 120 h, read-out: RS4, 11 BCL2-G101V IC50. The essentials: (§1)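 RS4;11 cells stably overexpressing mutant BCL-2 were seeded and pre-incubated 4 h (G101V, F104L) or 24 h (D103E, D103Y), then exposed to compound at 1.5–10000 nM for 120 h (G101V, F104L) or 72 h (D103E, D103Y) at 37 °C. Viability was read by MTS absorbance at 490 nm after 2 h; IC50 fitted.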

Experiment [2] has as its system RS4;11-BCL-2 F104L cells. The experiment can be described thus: Cell proliferation assay (MTS), RS4;11-BCL-2 F104L engineered cells. The note with it: Homo sapiens, 120 h, read-out: RS4, 11 BCL2-F104L IC50. The procedure, abridged:
as §1

The test system of experiment [3] is RS4;11-BCL-2 D103E cells. The experiment can be described thus: Cell proliferation assay (MTS), RS4;11-BCL-2 D103E engineered cells. The note with it: Homo sapiens, 72 h, read-out: RS4, 11 BCL2-D103E IC50. The procedure, abridged: as §1
Experiment [4] relates to Toledo cells. The experiment can be described thus: Cell proliferation assay (MTS), Toledo cells. To be noted: Homo sapiens, 72 h. The essentials:
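Toledo cells (RPMI-1640, 10% FBS) seeded at 30000 cells/well, rested 4 h, then exposed 72 h at 37 °C, 5% CO2 to compound at nine final concentrations, 1.5–10000 nM. Viability by MTS (2 h), absorbance at 490 nm. IC50 from the concentration-response.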

Here are results for eleven molecules from patent publication US20250122191A1, “COMPOUNDS AS BCL-2 INHIBITORS” (Fochon Biosciences, Ltd, priority 2021, published 2025).

`COc1cc(CN2CCN(C3CC4(CCN(c5ccc(C(=O)NS(=O)(=O)c6cnc(NC[C@H]7CC[C@](C)(O)CC7)c([N+](=O)[O-])c6)c(Oc6cc7c(F)c[nH]c7nc6OC)c5)CC4)C3)[C@H](c3ccccc3C(C)C)C2)cc(OC)n1` [Example 62, 4-(2-((R)-4-((2,6-dimethoxypyridin-4-yl)methyl)-2-(2-isopropylphenyl)piperazin-1-yl)-7-azaspiro[3.5]nonan-7-yl)-2-((3-fluoro-6-methoxy-1H-pyrrolo[2,3-b]pyridin-5-yl)oxy)-N-((6-((((1r,4r)-4-hydroxy-4-methylcyclohexyl)methyl)amino)-5-nitropyridin-3-yl)sulfonyl)benzamide]: the IC50 in experiment [1], in experiment [2] and in experiment [3] was 1 nM each time.

As for `COc1nc2[nH]cc(F)c2cc1Oc1cc(N2CCC3(CC2)CC(N2CCN(Cc4ccnc(OCCO)c4)C[C@H]2c2ccccc2C(C)C)C3)ccc1C(=O)NS(=O)(=O)c1cnc(NC[C@H]2CC[C@](C)(O)CC2)c([N+](=O)[O-])c1` [Example 64, 2-((3-fluoro-6-methoxy-1H-pyrrolo[2,3-b]pyridin-5-yl)oxy)-N-((6-((((1r,4r)-4-hydroxy-4-methylcyclohexyl)methyl)amino)-5-nitropyridin-3-yl)sulfonyl)-4-(2-((R)-4-((2-(2-hydroxyethoxy)pyridin-4-yl)methyl)-2-(2-isopropylphenyl)piperazin-1-yl)-7-azaspiro[3.5]nonan-7-yl)benzamide], the IC50 in experiment [1] came out at 1 nM; in experiment [2], 3 nM; in experiment [3], 1 nM.

As to `COc1ccc(CN2CCN(C3CC4(CCN(c5ccc(C(=O)NS(=O)(=O)c6cnc(NC[C@H]7CC[C@](C)(O)CC7)c([N+](=O)[O-])c6)c(Oc6cnc7[nH]cc(F)c7c6)c5)CC4)C3)[C@H](c3ccccc3C(C)C)C2)cc1` [Example 71, 2-((3-fluoro-1H-pyrrolo[2,3-b]pyridin-5-yl)oxy)-N-((6-((((1r,4r)-4-hydroxy-4-methylcyclohexyl)methyl)amino)-5-nitropyridin-3-yl)sulfonyl)-4-(2-((R)-2-(2-isopropylphenyl)-4-(4-methoxybenzyl)piperazin-1-yl)-7-azaspiro[3.5]nonan-7-yl)benzamide], the IC50 in experiment [1], in experiment [4], in experiment [2] and in experiment [3] was 1 nM throughout.

Consider `COc1nc2[nH]cc(F)c2cc1Oc1cc(N2CCC3(CC2)CC(N2CCN(C(C)C)C[C@H]2c2ccccc2C(C)C)C3)ccc1C(=O)NS(=O)(=O)c1cnc(NC[C@H]2CC[C@](C)(O)CC2)c([N+](=O)[O-])c1` [Example 99, 2-((3-fluoro-6-methoxy-1H-pyrrolo[2,3-b]pyridin-5-yl)oxy)-N-((6-((((1r,4r)-4-hydroxy-4-methylcyclohexyl)methyl)amino)-5-nitropyridin-3-yl)sulfonyl)-4-(2-((R)-4-isopropyl-2-(2-isopropylphenyl)piperazin-1-yl)-7-azaspiro[3.5]nonan-7-yl)benzamide], for which the concentration for half-maximal inhibition (IC50) in experiment [1], in experiment [2] and in experiment [3] was 1 nM each time.

Regarding `CC(C)c1ccccc1[C@@H]1CN(Cc2ccc(C#N)cc2)CCN1C1CC2(CCN(c3ccc(C(=O)NS(=O)(=O)c4cnc(NC[C@H]5CC[C@](C)(O)CC5)c([N+](=O)[O-])c4)c(Oc4cnc5[nH]cc(F)c5c4)c3)CC2)C1` [Example 237, 4-(2-((R)-4-(4-cyanobenzyl)-2-(2-isopropylphenyl)piperazin-1-yl)-7-azaspiro[3.5]nonan-7-yl)-2-((3-fluoro-1H-pyrrolo[2,3-b]pyridin-5-yl)oxy)-N-((6-((((1r,4r)-4-hydroxy-4-methylcyclohexyl)methyl)amino)-5-nitropyridin-3-yl)sulfonyl)benzamide], the IC50 in experiment [1], in experiment [4], in experiment [2] and in experiment [3] was 1 nM throughout.

On to `CC(C)c1ccccc1[C@@H]1CN(Cc2ccncc2)CCN1C1CC2(CCN(c3ccc(C(=O)NS(=O)(=O)c4cnc(NC[C@H]5CC[C@](C)(O)CC5)c([N+](=O)[O-])c4)c(Oc4cnc5[nH]cc(F)c5c4)c3)CC2)C1` [Example 240, 2-((3-fluoro-1H-pyrrolo[2,3-b]pyridin-5-yl)oxy)-N-((6-((((1r,4r)-4-hydroxy-4-methylcyclohexyl)methyl)amino)-5-nitropyridin-3-yl)sulfonyl)-4-(2-((R)-2-(2-isopropylphenyl)-4-(pyridin-4-ylmethyl)piperazin-1-yl)-7-azaspiro[3.5]nonan-7-yl)benzamide], for which the IC50 was 1 nM in experiment [1], 1 nM in experiment [4], 1 nM in experiment [2] and 3 nM in experiment [3].

For `COc1nc2[nH]cc(F)c2cc1Oc1cc(N2CCC3(CC2)CC(N2CCN(Cc4ccc(OC)c5oc(C)nc45)C[C@H]2c2ccccc2C(C)C)C3)ccc1C(=O)NS(=O)(=O)c1cnc(NC[C@H]2CC[C@](C)(O)CC2)c([N+](=O)[O-])c1` [Example 245, 2-((3-fluoro-6-methoxy-1H-pyrrolo[2,3-b]pyridin-5-yl)oxy)-N-((6-((((1r,4r)-4-hydroxy-4-methylcyclohexyl)methyl)amino)-5-nitropyridin-3-yl)sulfonyl)-4-(2-((R)-2-(2-isopropylphenyl)-4-((7-methoxy-2-methylbenzo[d]oxazol-4-yl)methyl)piperazin-1-yl)-7-azaspiro[3.5]nonan-7-yl)benzamide], the IC50 in experiment [1], in experiment [4], in experiment [2] and in experiment [3] was 1 nM each time.

In the case of `COc1nc(CN2CCN(C3CC4(CCN(c5ccc(C(=O)NS(=O)(=O)c6cnc(NC[C@H]7CC[C@](C)(O)CC7)c([N+](=O)[O-])c6)c(Oc6cnc7[nH]cc(F)c7c6)c5)CC4)C3)[C@H](c3ccccc3C(C)C)C2)ccc1C1CC1` [Example 291, 4-(2-((R)-4-((5-cyclopropyl-6-methoxypyridin-2-yl)methyl)-2-(2-isopropylphenyl)piperazin-1-yl)-7-azaspiro[3.5]nonan-7-yl)-2-((3-fluoro-1H-pyrrolo[2,3-b]pyridin-5-yl)oxy)-N-((6-((((1r,4r)-4-hydroxy-4-methylcyclohexyl)methyl)amino)-5-nitropyridin-3-yl)sulfonyl)benzamide], the IC50 in experiment [4], in experiment [2] and in experiment [3] was 1 nM throughout.

As for `CC(C)c1ccccc1[C@@H]1CN(Cc2ccc3c(c2)CCO3)CCN1C1CC2(CCN(c3ccc(C(=O)NS(=O)(=O)c4cnc(NC[C@H]5CC[C@](C)(O)CC5)c([N+](=O)[O-])c4)c(Oc4cnc5[nH]cc(F)c5c4)c3)CC2)C1` [Example 324, 4-(2-((R)-4-((2,3-dihydrobenzofuran-5-yl)methyl)-2-(2-isopropylphenyl)piperazin-1-yl)-7-azaspiro[3.5]nonan-7-yl)-2-((3-fluoro-1H-pyrrolo[2,3-b]pyridin-5-yl)oxy)-N-((6-((((1r,4r)-4-hydroxy-4-methylcyclohexyl)methyl)amino)-5-nitropyridin-3-yl)sulfonyl)benzamide], the IC50 in experiment [1], in experiment [4], in experiment [2] and in experiment [3] was 1 nM throughout.

Turning to `COc1nc2[nH]cc(F)c2cc1Oc1cc(N2CCC3(CC2)CC(N2CCN(Cc4ccc(S(C)(=O)=O)cc4)C[C@H]2c2ccccc2C(C)C)C3)ccc1C(=O)NS(=O)(=O)c1cnc(NC[C@H]2CC[C@](C)(O)CC2)c([N+](=O)[O-])c1` [Example 327, 2-((3-fluoro-6-methoxy-1H-pyrrolo[2,3-b]pyridin-5-yl)oxy)-N-((6-((((1r,4r)-4-hydroxy-4-methylcyclohexyl)methyl)amino)-5-nitropyridin-3-yl)sulfonyl)-4-(2-((R)-2-(2-isopropylphenyl)-4-(4-(methylsulfonyl)benzyl)piperazin-1-yl)-7-azaspiro[3.5]nonan-7-yl)benzamide], the IC50 in experiment [4], in experiment [2] and in experiment [3] was 1 nM throughout.

Take `COc1nc2[nH]cc(F)c2cc1Oc1cc(N2CCC3(CC2)CC(N2CCN(C[C@@H]4COCCO4)C[C@H]2c2ccccc2C(C)C)C3)ccc1C(=O)NS(=O)(=O)c1cnc(NC[C@H]2CC[C@](C)(O)CC2)c([N+](=O)[O-])c1` [Example 334, 4-(2-((R)-4-(((R)-1,4-dioxan-2-yl)methyl)-2-(2-isopropylphenyl)piperazin-1-yl)-7-azaspiro[3.5]nonan-7-yl)-2-((3-fluoro-6-methoxy-1H-pyrrolo[2,3-b]pyridin-5-yl)oxy)-N-((6-((((1r,4r)-4-hydroxy-4-methylcyclohexyl)methyl)amino)-5-nitropyridin-3-yl)sulfonyl)benzamide]: the IC50 in experiment [1], in experiment [4], in experiment [2] and in experiment [3] was 1 nM throughout.

The IC50 is the concentration that gives 50% inhibition.
